PubChem BioAssay (NCI)
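The compound was tested at five concentrations on cells cultured in 96-well plates, with a 48-hour exposure period. The concentration for 50% growth inhibition is given as GI50. TGI: total growth inhibition.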

What was measured:
Test in all cases: growth of human tumour cells (NCI), 48 h
786-0 renal = system: 786-0 renal
A498 renal = system: A498 renal
A549 NSCLC = system: A549 NSCLC
ACHN renal = system: ACHN renal
BT-549 breast = system: BT-549 breast
CCRF-CEM leukemia = system: CCRF-CEM leukemia
COLO 205 colon = system: COLO 205 colon
DU-145 prostate = system: DU-145 prostate
EKVX NSCLC = system: EKVX NSCLC
HCC-2998 colon = system: HCC-2998 colon
HCT-116 colon = system: HCT-116 colon
HCT-15 colon = system: HCT-15 colon
HL-60(TB) leukemia = system: HL-60(TB) leukemia
HOP-62 NSCLC = system: HOP-62 NSCLC
HOP-92 NSCLC = system: HOP-92 NSCLC
HS 578T breast = system: HS 578T breast
HT29 colon = system: HT29 colon
IGROV1 ovarian = system: IGROV1 ovarian
K-562 leukemia = system: K-562 leukemia
KM12 colon = system: KM12 colon
LOX IMVI melanoma = system: LOX IMVI melanoma
M14 melanoma = system: M14 melanoma
MALME-3M melanoma = system: MALME-3M melanoma
MCF7 breast = system: MCF7 breast
MDA-MB-231 breast = system: MDA-MB-231 breast
MDA-MB-435 = system: MDA-MB-435
MOLT-4 leukemia = system: MOLT-4 leukemia
NCI-H226 lung = system: NCI-H226 lung
NCI-H23 lung = system: NCI-H23 lung
NCI-H460 lung = system: NCI-H460 lung
NCI-H522 lung = system: NCI-H522 lung
NCI/ADR-RES ovarian = system: NCI/ADR-RES ovarian
OVCAR-3 ovarian = system: OVCAR-3 ovarian
OVCAR-4 ovarian = system: OVCAR-4 ovarian
OVCAR-5 ovarian = system: OVCAR-5 ovarian
OVCAR-8 ovarian = system: OVCAR-8 ovarian
PC-3 prostate = system: PC-3 prostate
RPMI-8226 leukemia = system: RPMI-8226 leukemia
RXF 393 renal = system: RXF 393 renal
SF-268 CNS = system: SF-268 CNS
SF-295 CNS = system: SF-295 CNS
SF-539 CNS = system: SF-539 CNS
SK-MEL-2 melanoma = system: SK-MEL-2 melanoma
SK-MEL-28 melanoma = system: SK-MEL-28 melanoma
SK-MEL-5 melanoma = system: SK-MEL-5 melanoma
SK-OV-3 ovarian = system: SK-OV-3 ovarian
SNB-19 CNS = system: SNB-19 CNS
SNB-75 CNS = system: SNB-75 CNS
SR leukemia = system: SR leukemia
SW-620 colon = system: SW-620 colon
T-47D breast = system: T-47D breast
TK-10 renal = system: TK-10 renal
U251 CNS = system: U251 CNS
UACC-257 melanoma = system: UACC-257 melanoma
UACC-62 melanoma = system: UACC-62 melanoma
UO-31 renal = system: UO-31 renal

## O=C1CCC/C=C\C[C@H]2C=C(Cl)C(=O)/C2=C/C[C@H](CCCCC(F)(F)F)OC(=O)CCC/C=C\C[C@H]2C=C(Cl)C(=O)/C2=C/C[C@H](CCCCC(F)(F)F)O1
786-0 renal
  GI50: 180 nM
  TGI: 475 nM
A498 renal
  GI50: 965 nM
  TGI: 2120 nM
A549 NSCLC
  GI50: 429 nM
  TGI: 2610 nM
ACHN renal
  GI50: 262 nM
  TGI: 1020 nM
BT-549 breast
  GI50: 183 nM
  TGI: 502 nM
CCRF-CEM leukemia
  GI50: 178 nM
  TGI: 884 nM
COLO 205 colon
  GI50: 246 nM
  TGI: 859 nM
DU-145 prostate
  GI50: 264 nM
  TGI: 1420 nM
EKVX NSCLC
  GI50: 283 nM
  TGI: 1180 nM
HCC-2998 colon
  GI50: 215 nM
  TGI: 640 nM
HCT-116 colon
  GI50: 157 nM
  TGI: 430 nM
HCT-15 colon
  GI50: 297 nM
  TGI: 1320 nM
HL-60(TB) leukemia
  GI50: 362 nM
  TGI: 3600 nM
HOP-62 NSCLC
  GI50: 274 nM
  TGI: 1460 nM
HOP-92 NSCLC
  GI50: 199 nM
  TGI: 754 nM
HS 578T breast
  GI50: 267 nM
  TGI: 7500 nM
HT29 colon
  GI50: 241 nM
  TGI: 807 nM
IGROV1 ovarian
  GI50: 231 nM
  TGI: 791 nM
K-562 leukemia
  GI50: 184 nM
  TGI: 7500 nM
KM12 colon
  GI50: 291 nM
  TGI: 1380 nM
LOX IMVI melanoma
  GI50: 128 nM
  TGI: 268 nM
M14 melanoma
  GI50: 192 nM
  TGI: 614 nM
MALME-3M melanoma
  GI50: 210 nM
  TGI: 694 nM
MCF7 breast
  GI50: 176 nM
  TGI: 973 nM
MDA-MB-231 breast
  GI50: 194 nM
  TGI: 504 nM
MDA-MB-435
  GI50: 147 nM
  TGI: 307 nM
MOLT-4 leukemia
  GI50: 240 nM
  TGI: 1600 nM
NCI-H226 lung
  GI50: 263 nM
  TGI: 1230 nM
NCI-H23 lung
  GI50: 236 nM
  TGI: 868 nM
NCI-H460 lung
  GI50: 257 nM
  TGI: 1030 nM
NCI-H522 lung
  GI50: 166 nM
  TGI: 384 nM
NCI/ADR-RES ovarian
  GI50: 1570 nM
  TGI: 7140 nM
OVCAR-3 ovarian
  GI50: 190 nM
  TGI: 485 nM
OVCAR-4 ovarian
  GI50: 240 nM
  TGI: 3930 nM
OVCAR-5 ovarian
  GI50: 340 nM
  TGI: 2080 nM
OVCAR-8 ovarian
  GI50: 231 nM
  TGI: 1090 nM
PC-3 prostate
  GI50: 192 nM
  TGI: 574 nM
RPMI-8226 leukemia
  GI50: 177 nM
  TGI: 528 nM
RXF 393 renal
  GI50: 134 nM
  TGI: 279 nM
SF-268 CNS
  GI50: 241 nM
  TGI: 1380 nM
SF-295 CNS
  GI50: 292 nM
  TGI: 1190 nM
SF-539 CNS
  GI50: 257 nM
  TGI: 1520 nM
SK-MEL-2 melanoma
  GI50: 329 nM
  TGI: 2110 nM
SK-MEL-28 melanoma
  GI50: 166 nM
  TGI: 419 nM
SK-MEL-5 melanoma
  GI50: 412 nM
  TGI: 1370 nM
SK-OV-3 ovarian
  GI50: 1720 nM
  TGI: 5170 nM
SNB-19 CNS
  GI50: 353 nM
  TGI: 1670 nM
SNB-75 CNS
  GI50: 1230 nM
  TGI: 6240 nM
SR leukemia
  GI50: 198 nM
  TGI: 748 nM
SW-620 colon
  GI50: 237 nM
  TGI: 659 nM
T-47D breast
  GI50: 204 nM
  TGI: 1160 nM
TK-10 renal
  GI50: 346 nM
  TGI: 1890 nM
U251 CNS
  GI50: 226 nM
  TGI: 772 nM
UACC-257 melanoma
  GI50: 685 nM
  TGI: 2300 nM
UACC-62 melanoma
  GI50: 149 nM
  TGI: 352 nM
UO-31 renal
  GI50: 133 nM
  TGI: 281 nM
